Reference: US12338256B2, “Aza-tetracyclic oxazepine compounds and uses thereof” (Genentech, Inc., priority 2022, dated 2025)

Legend:
Assay type in all cases: cell-based
[1] = test system: AsPC-1 (homozygous mutant KRAS G12D human pancreatic cell line); assay: KRAS 3D-Cell Proliferation Assay, AsPC-1 (Example 503); conditions: Homo sapiens, ASPC1, 168 h, AsPC-1 3D culture, 7 days, CellTiter-Glo 3D; read-out: Prolif AsPC-1 3D ATP IC50
Procedure, shortened: (§1)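 Cells grown in 3D in ultra-low attachment plates (RPMI-1640 with 10% FBS and 2 mM L-glutamine) received compound dilution series after overnight attachment, at 0.3% DMSO final, for 7 days at 37° C. ATP luminescence (CellTiter-Glo 3D) normalized to DMSO and 1 μM staurosporine; IC50 from 4-parameter Hill fit.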

[2] = test system: H1975 (KRAS wild type human lung adenocarcinoma cell line); assay: KRAS 3D-Cell Proliferation Assay, H1975 (Example 503); conditions: Homo sapiens, NCI-H1975, 168 h, H1975 3D culture, 7 days, CellTiter-Glo 3D; read-out: Prolif H1975 3D ATP IC50
Procedure, shortened: as §1

[3] = test system: PC-9 (KRAS wild type human lung adenocarcinoma cell line); assay: KRAS 3D-Cell Proliferation Assay, PC-9 (Example 503); conditions: 168 h, PC-9 3D culture, 7 days, CellTiter-Glo 3D, read-out: Prolif PC9 3D ATP IC50
Description: Example 503: KRAS 3D-Cell Proliferation Assays. Cellular potencies of compounds are assessed by evaluating inhibition of proliferation in 3D cultures of homozygous mutant KRAS G12D human pancreatic cell lines (AsPC-1 and HPAC) as compared to a KRAS wild type human lung adenocarcinoma cell line (PC-9 and/or H1975). Cells are seeded into 384-well black round-bottom, ultra-low attachment assay plates in 50 uL cell growth medium (RPMI-1640 with 10% fetal bovine serum and 2 mM L-glutamine). After overnight incubation at 37° C. and 5% CO2, compounds solubilized in DMSO are added as dilution series to the wells in a total volume of 150 nL (0.3% DMSO final). The cells are incubated for 7 days at 37° C. and 5% CO2. Cell proliferation is quantitated by addition of 40 uL/well of CellTiter-GloÒ 3D (Promega), and the well contents are mixed 20× at high speed using liquid handling automation workstation (Bravo with 384-well head) and centrifuged at 1500 rpm for 2 minutes to eliminate bubbles. This reagent in combination with mechanical disruption releases the cellular ATP to promote activity in a luciferase-based enzyme/substrate chemiluminescent detection system. After a 30-minute incubation under ambient conditions with shaking and an additional 10 minutes without shaking, the luminescence is read on a plate reader (e.g., EnVision [PerkinElmer]). The results are normalized to percent inhibition based on the following control samples: DMSO (0% inhibition) and 1 μM staurosporine (100% inhibition). The normalized luminescence results are plotted against compound concentration, and the data are fit to a 4-parameter Hill equation to determine the IC50 values.

[4] = test system: HPAC (homozygous mutant KRAS G12D human pancreatic cell line); assay: KRAS 3D-Cell Proliferation Assay, HPAC (Example 503); conditions: Homo sapiens, HPAC, 168 h, HPAC 3D culture, 7 days, CellTiter-Glo 3D; read-out: Prolif HPAC 3D ATP IC50
Procedure, shortened: as §1

Row | SMILES | IC50 [1] [nM] | IC50 [2] [nM] | IC50 [3] [nM] | IC50 [4] [nM]
1 | C#Cc1cccc2cc(O)cc(-c3nc4c5c(nc(OCC67CCN6CC(F)(F)C7)nc5c3F)N3C[C@H]5CC[C@H](N5)[C@H]3[C@H](C)O4)c12 (single isomer, unassigned) [Compound 20] | 28.7 | 2220 | 8680 | 7.78
2 | C#Cc1cccc2cc(O)cc(-c3nc4c5c(nc(OC[C@@]67CCCN6C[C@H](F)C7)nc5c3F)N3C[C@H]5CC[C@H](N5)[C@H]3CO4)c12 [Compound 3, 5-ethynyl-4-((5aS,6S,9R)-1-fluoro-12-(((2R,7aS)-2-fluorotetrahydro-1H-pyrrolizin-7a(5H)-yl)methoxy)-5a,6,7,8,9,10-hexahydro-5H-4-oxa-3,10a,11,13,14-pentaaza-6,9-methanonaphtho[1,8-ab]heptalen-2-yl)naphthalen-2-ol] | 6.72 | 202 | ≥ 20000 | 11.2
3 | CCc1cccc2cc(O)cc(-c3nc4c5c(nc(OC[C@@]67CCCN6C[C@H](F)C7)nc5c3F)N3C[C@H]5CC[C@H](N5)[C@H]3CO4)c12 [Compound 5, 5-ethyl-4-((5aS,6S,9R)-1-fluoro-12-(((2R,7aS)-2-fluorotetrahydro-1H-pyrrolizin-7a(5H)-yl)methoxy)-5a,6,7,8,9,10-hexahydro-5H-4-oxa-3,10a,11,13,14-pentaaza-6,9-methanonaphtho[1,8-ab]heptalen-2-yl)naphthalen-2-ol] | 6.28 | 1400 | 9050 | 7.06
4 | Cc1c(F)c(N)cc(-c2nc3c4c(nc(OC[C@@]56CCCN5C[C@H](F)C6)nc4c2F)N2C[C@H]4CC[C@H](N4)[C@H]2[C@H](C)O3)c1C(F)(F)F [Compound 6, 2-Fluoro-5-((5S,5aS,6S,9R)-1-fluoro-12-(((2R,7aS)-2-fluorotetrahydro-1H-pyrrolizin-7a(5H)-yl)methoxy)-5-methyl-5a,6,7,8,9,10-hexahydro-5H-4-oxa-3,10a,11,13,14-pentaaza-6,9-methanonaphtho[1,8-ab]heptalen-2-yl)-3-methyl-4-(trifluoromethyl)aniline] | 0.561 | 692 | 4210 | 0.247
5 | C#Cc1c(F)ccc2cc(O)cc(-c3nc4c5c(nc(OC[C@@]67CCCN6C[C@H](F)C7)nc5c3F)N3C[C@H]5CC[C@H](N5)[C@H]3[C@H](C)O4)c12 [Compound 7, 5-Ethynyl-6-fluoro-4-((5S,5aS,6S,9R)-1-fluoro-12-(((2R,7aS)-2-fluorotetrahydro-1H-pyrrolizin-7a(5H)-yl)methoxy)-5-methyl-5a,6,7,8,9,10-hexahydro-5H-4-oxa-3,10a,11,13,14-pentaaza-6,9-methanonaphtho[1,8-ab]heptalen-2-yl)naphthalen-2-ol] | 1.92 | 130 | 10200 | 1.36
6 | C[C@@H]1Oc2nc(-c3cccc4cccc(Cl)c34)c(F)c3nc(OC[C@@]45CCCN4C[C@H](F)C5)nc(c23)N2C[C@H]3CC[C@H](N3)[C@@H]12 [Compound 8, (5S,5aS,6S,9R)-2-(8-chloronaphthalen-1-yl)-1-fluoro-12-(((2R,7aS)-2-fluorotetrahydro-1H-pyrrolizin-7a(5H)-yl)methoxy)-5-methyl-5a,6,7,8,9,10-hexahydro-5H-4-oxa-3,10a,11,13,14-pentaaza-6,9-methanonaphtho[1,8-ab]heptalene] | 72 | 4310 | 3920 | 87.3
7 | CCc1cccc2cc(O)cc(-c3nc4c5c(nc(OC[C@@]67CCCN6C[C@H](F)C7)nc5c3F)N3C[C@H]5CC[C@H](N5)[C@H]3[C@H](C)O4)c12 [Compound 10, 5-ethyl-4-((5S,5aS,6S,9R)-1-fluoro-12-(((2R,7aS)-2-fluorotetrahydro-1H-pyrrolizin-7a(5H)-yl)methoxy)-5-methyl-5a,6,7,8,9,10-hexahydro-5H-4-oxa-3,10a,11,13,14-pentaaza-6,9-methanonaphtho[1,8-ab]heptalen-2-yl)naphthalen-2-ol] | 4.93 | 2270 | 6670 | 5.96
8 | C#Cc1cccc2cc(O)cc(-c3nc4c5c(nc(OC[C@@]67CCCN6C[C@H](F)C7)nc5c3F)N3C[C@H]5CC[C@H](N5)[C@H]3[C@H](C)O4)c12 [Compound 11, 5-ethynyl-4-((5S,5aS,6S,9R)-1-fluoro-12-(((2R,7aS)-2-fluorotetrahydro-1H-pyrrolizin-7a(5H)-yl)methoxy)-5-methyl-5a,6,7,8,9,10-hexahydro-5H-4-oxa-3,10a,11,13,14-pentaaza-6,9-methanonaphtho[1,8-ab]heptalen-2-yl)naphthalen-2-ol] | 2.3 | 169 | ≥ 20000 | 2.41
9 | C[C@@H]1Oc2nc(-c3cc(N)c(F)cc3C(F)(F)F)c(F)c3nc(OC[C@@]45CCCN4C[C@H](F)C5)nc(c23)N2C[C@H]3CC[C@H](N3)[C@@H]12 [Compound 14, 2-fluoro-5-((5S,5aS,6S,9R)-1-fluoro-12-(((2R,7aS)-2-fluorotetrahydro-1H-pyrrolizin-7a(5H)-yl)methoxy)-5-methyl-5a,6,7,8,9,10-hexahydro-5H-4-oxa-3,10a,11,13,14-pentaaza-6,9-methanonaphtho[1,8-ab]heptalen-2-yl)-4-(trifluoromethyl)aniline] | 5.62 | 2510 | 6210 | 11.3
10 | Cc1cc(N)cc(-c2nc3c4c(nc(OC[C@@]56CCCN5C[C@H](F)C6)nc4c2F)N2C[C@H]4CC[C@H](N4)[C@H]2[C@H](C)O3)c1C(F)(F)F [Compound 16, 3-((5S,5aS,6S,9R)-1-fluoro-12-(((2R,7aS)-2-fluorotetrahydro-1H-pyrrolizin-7a(5H)-yl)methoxy)-5-methyl-5a,6,7,8,9,10-hexahydro-5H-4-oxa-3,10a,11,13,14-pentaaza-6,9-methanonaphtho[1,8-ab]heptalen-2-yl)-5-methyl-4-(trifluoromethyl)aniline] | 1.3 | 255 | ≥ 20000 | 0.7
11 | C[C@@H]1Oc2nc(-c3cc(N)cc(F)c3C(F)(F)F)c(F)c3nc(OC[C@@]45CCCN4C[C@H](F)C5)nc(c23)N2C[C@H]3CC[C@H](N3)[C@@H]12 [Compound 17, 3-fluoro-5-((5S,5aS,6S,9R)-1-fluoro-12-(((2R,7aS)-2-fluorotetrahydro-1H-pyrrolizin-7a(5H)-yl)methoxy)-5-methyl-5a,6,7,8,9,10-hexahydro-5H-4-oxa-3,10a,11,13,14-pentaaza-6,9-methanonaphtho[1,8-ab]heptalen-2-yl)-4-(trifluoromethyl)aniline] | 1.71 | 1340 | 7910 | 0.62
12 | Cc1cc(-c2nc3c4c(nc(OC[C@@]56CCCN5C[C@H](F)C6)nc4c2F)N2C[C@H]4CC[C@H](N4)[C@H]2[C@H](C)O3)c(F)c(N)c1F [Compound 18, 2,6-difluoro-3-((5S,5aS,6S,9R)-1-fluoro-12-(((2R,7aS)-2-fluorotetrahydro-1H-pyrrolizin-7a(5H)-yl)methoxy)-5-methyl-5a,6,7,8,9,10-hexahydro-5H-4-oxa-3,10a,11,13,14-pentaaza-6,9-methanonaphtho[1,8-ab]heptalen-2-yl)-5-methylaniline] | 5590 | 20000 | 7910 | 5220
13 | Cc1c(F)c(N)cc(-c2nc3c4c(nc(OC[C@]56CCN5CC(F)(F)C6)nc4c2F)N2C[C@H]4CC[C@H](N4)[C@H]2[C@H](C)O3)c1C(F)(F)F [Compound 24, 5-((5S,5aS,6S,9R)-12-(((R)-3,3-difluoro-1-azabicyclo[3.2.0]heptan-5-yl)methoxy)-1-fluoro-5-methyl-5a,6,7,8,9,10-hexahydro-5H-4-oxa-3,10a,11,13,14-pentaaza-6,9-methanonaphtho[1,8-ab]heptalen-2-yl)-2-fluoro-3-methyl-4-(trifluoromethyl)aniline] | 4.29 | 6710 | 7870 | 1.89
